Assay results: PubChem BioAssay (NCI)
Values joined by “and” are separate entries in the source; they are usually repeats but may differ in a detail not shown here. Equal entries are not always repeated.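 Where inhibition never reached the appropriate level, the endpoint shown equals the highest concentration tested. Otherwise, values were interpolated linearly from a five-concentration, 48-hour dose response in 96-well plates. At the GI50, growth is halved. TGI is the concentration that stops growth completely.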

How the values were obtained:
Test in all cases: NCI-60 cell line screen, 48 h
[1] = test system: NCI-H522 lung
[2] = test system: OVCAR-8 ovarian
[3] = test system: MDA-MB-231 breast
[4] = test system: OVCAR-4 ovarian
[5] = test system: HT29 colon
[6] = test system: A549 NSCLC
[7] = test system: MCF7 breast
[8] = test system: MDA-MB-435
[9] = test system: MOLT-4 leukemia
[10] = test system: HOP-62 NSCLC

Structure (SMILES)	GI50 [1] [µM]	TGI [1]	GI50 [2] [µM]	TGI [2] [µM]	GI50 [3] [µM]	TGI [3]	GI50 [4] [µM]	TGI [4] [µM]	GI50 [5] [µM]	TGI [5]	GI50 [6] [µM]	TGI [6]	GI50 [7] [µM]	TGI [7]	GI50 [8] [µM]	TGI [8] [µM]	GI50 [9] [µM]	TGI [9] [µM]	GI50 [10] [µM]	TGI [10]
O=c1oc2ccc(Br)cc2c(=O)n1-c1ccc(I)cc1F	0.277	1.65 µM	0.362	5.98	0.327	2.54 µM	0.389	13.7	3.31	12.5 µM	0.717	22.9 µM	0.709	5.87 µM	0.409	3.82	0.579	3.22	0.774	7.76 µM
COc1ccc(C2C=C(c3ccc4c(c3)OCO4)Oc3c2c(=O)oc2ccccc32)cc1OC (stereo unspecified)		> 66.3 µM		> 100		> 100 µM		> 100		> 85.5 µM		> 100 µM		> 100 µM		0.529		> 100		> 100 µM
CN(Cc1cc(Cl)cc(Cl)c1O)Cc1c(O)ccc2ccccc12		29.6 µM		39.2		32.2 µM		38.9		> 100 µM		62.3 µM		33.2 µM		41.4		58.3		38.7 µM
O=S(=O)(/N=c1/scc(-c2ccccc2)n1-c1ccccc1)c1ccc(N2N=C3c4ccccc4CC3C2c2cccs2)cc1 (stereo unspecified)	61.9	> 100 µM	47.2	> 100	52.1	> 100 µM	> 100	> 100	82	> 100 µM	57	> 100 µM	29.1	> 100 µM	38.7	> 100	19	63.7	73.2	> 100 µM
CN(C)c1ccc(/C=C/C2=[N+](C)c3ccccc3C2(C)C)cc1	0.587	10.1 µM	0.349	12.1	1.51	20.9 µM	1.63	31.5	0.293	2.53 µM	2.64	14.9 µM	0.382	8.11 µM	0.467	11.7	0.305	2.24	0.862	13.8 µM
Cn1c(NCC(O)CN2CCCC2)cc(=O)n(C)c1=O (stereo unspecified)	> 100	> 100 µM	> 100	> 100	> 100	> 100 µM	> 100	> 100	> 100	> 100 µM	> 100	> 100 µM	> 100	> 100 µM	> 100	> 100	> 100	> 100	> 100	> 100 µM
O=C(Nc1ccccc1)c1cc(S(=O)(=O)Nc2nc3ccccc3o2)c(SCc2ccccc2)cc1Cl	25.2	65 µM	24.5	65	18.3	42.4 µM	33.8	> 100	43	> 100 µM	21	53.8 µM	28.4	80.6 µM	19	37.7	13.3	37.8	20.2	42.5 µM
CC(=O)N1N=C2/C(=C/c3ccc(Cl)cc3)CC(C)CC2C1c1ccc(Cl)cc1 (stereo unspecified)	17.1	56.8 µM	24.9	> 100	18.1	52.6 µM	27.9	> 100	21.7	91.5 µM	20.6	> 100 µM	19.2	54.2 µM	30.9	> 100	11.6	39.3	22.1	54.6 µM
CCCCCCCCn1ccc2cc(NC(=O)Cn3cc(CN4CCCCC4)nn3)ccc21	1.8	4 µM	2.98	9.3	1.8	3.52 µM	3.66	14.3	2.02	4.28 µM	1.99	4.57 µM	1.85	4.29 µM	1.68	3.15	2.59	7.23	1.89	3.75 µM
CN1C/C=C/CCOc2cccc(c2)-c2ccnc(n2)Nc2cccc(c2)C1	0.0522	0.233 µM	0.0412	1.26	0.0731	1.08 µM	0.108	1.31	0.0376	0.416 µM	0.0394	1.12 µM	0.0309	1.17 µM	0.0366	0.153	0.0396	0.959	0.0422	0.376 µM
COc1cc([C@@H]2C[C@H]2c2cc(SC)n[nH]2)cc(OC)c1OC	13.8	37.3 µM	14	45.1	12.1	33.2 µM	26.2	> 100	26.9	> 100 µM	25.9	> 100 µM	18.8	41.2 µM	11.2	26.5	20.3	> 100	5.75	28.8 µM
COc1ccc(-n2ccnc2-c2cc(OC)c(OC)c(OC)c2)cc1	2.92	8.12 µM	4.71	> 100	6.13	> 100 µM	11.3	85.7	1.86		6.57	> 100 µM	1.55	> 100 µM	0.303	1.32	5.75	> 100	3.59	> 100 µM
O=C1c2ccccc2-c2c1c1ccccc1c(=O)n2CCCNCCCCNCCCN1C(=O)c2ccccc2C2C(=O)c3ccccc3C21 (stereo unspecified)	9.38	50 µM	0.0241	0.986	0.284	1.04 µM	0.779	10.3	0.0766	8.75 µM	0.0451	0.881 µM	0.0361	1.9 µM	0.805	2.83	< 0.005	0.711	0.273	1.08 µM
Cc1cc(C(C)(C)C)cc(CNC2CCCCC2)c1O		25.2 µM		31		32.9 µM		51.5		33.7 µM		33.8 µM		32.3 µM		43.4		92.4		47.6 µM
Cc1c(O)c2c(c(O)c1Br)C(=O)C=CC2=O	0.179	0.337 µM and 0.365 µM		2.74	1.58	3.01 µM and 3.48 µM	1.03	2.23	0.602	1.1 µM and 2.8 µM	4.14	4.47 µM and 29.4 µM	0.41	0.399 µM and 1.54 µM		0.451		0.101	2.48	2.36 µM and 5.35 µM
NC(N)=N/N=C/c1ccc(-c2ccc(-c3cc(Cl)cc(Cl)c3)s2)cc1	1.85	4.45 µM	2.48	6.34	1.77	3.36 µM	1.9	3.77	1.91	4.81 µM	2.15	4.99 µM	1.1	3.07 µM	1.65	3.28	1.72	4.3	1.79	4.05 µM
